Experimental data from patent publication US20240166702A1, “COMPOSITIONS AND METHODS FOR TREATING BREAST CANCER” (Arizona Board of Regents on Behalf of The University of …, priority 2021, published 2024).

Assays:
MDA-MB-468 cells = format: cell-based, human
Experimental: A. Peptide sequence alignment of modified and stabilized peptides (−) indicates conserved residues, (/) indicates a deleted residue. Modified residues used for staples are (S)-2-(((9H-flouren-9-yl) methoxy) caronylamino)-2-methyl-hept-6-enoic acid (5) and (R)-2-(((9H-flouren-9-yl) methoxy) caronylamino)-2-methyl-dec-9-enoic acid (8). PTD4=Protein Transduction Domain. Ac=acetylation of 5′ end and NH2=amidation of 3′ end. B. MDA-MB-468 cells were treated with 10 μM of the indicated peptide for 3 days. Cell viability was measured using an MTT assay. Vehicle control represents 100%. C. A predicted peptide structure of SNX1.3 was generated using SWISSMODEL with negative (blue) and positive (red) residues highlighted.
(§1) B. MDA-MD-468 cells were transduced with an IPTG inducible shEGFR targeted against the 3′ UTR of EGFR. These cells were incubated with IPTG for the indicated number of days and lysates were generated to confirm knock down of EGFR. C. In tandem with B., cells were plated and incubated +/−IPTG for 2 days prior to drug treatment. […] After 5 days of IPTG and 3 days of peptide treatment viability was measured using an MTT assay.
Predicted peptide structure including negatively (blue) and positively (red) charged residues was used to guide the modifications (FIG. 2C).

[1] = test system: A549 lung cancer line with wildtype EGFR; assay: MTT cell viability assay in A549 cells; format: cell-based; conditions: 3 days
[2] = test system: MDA-MB-468 cells with reduced EGFR; assay: MTT viability in MDA-MB-468 cells with shRNA knock down of EGFR; format: cell-based, human; conditions: shRNA to the 3′UTR of EGFR, 5 days IPTG, 3 days peptide, MTT assay
Experimental: as §1
(§2) No effect on CHO cells that lack EGFR expression was observed.

CHO cells = assay: Effect on CHO cells that lack EGFR expression; format: cell-based
Text: as §2

[3] = Toxicity evaluation in C57Bl/6J female mice; format: in vivo, mouse; conditions: 5.0 or 10.0 μg/g body weight, 3×/week IV, 2 weeks; cSNX1.3 versus cPTD4; data not shown
Experimental: Mice are continually bred to activate the pregnancy-dependent WAP promoter, which drives expression of the EGFR ligand Transforming Growth Factor alpha (TGFα) strictly to the mouse mammary glands. This model stochastically forms unifocal mammary adenocarcinomas through a process that begins with mammary hyperplasia, followed by tumor formation over approximately 8 months. […] No difference in weight or behavior or grooming was observed. Therefore 10 μg/g body weight was used for subsequent studies.

nuclear localized EGFR = assay: Subcellular protein fractionation for EGFR nuclear localization; format: cell-based, human; conditions: MDA-MB-468 serum starved, EGF and peptide for 2 hours
Experimental: (§3) Cells were then fractionated and verified by HSP90 cytosolic protein, Bap31 membrane protein, or HDAC nuclear protein. B. MDA-MB-468 cells were serum starved overnight then stimulated with EGF on ice for 10 minutes. […] B. MDA-MB-468 cells were serum starved overnight then incubated on ice with 10 ng/mL EGF for 10 minutes. […] C. […] After the second week, the number of secondary mammospheres were counted.
MDA-MB-468 were serum starved overnight then incubated with EGF and peptide for 2 hours to allow for nuclear localization of EGFR. Subcellular protein fractionation was then performed to isolate cytosolic, membrane, and nuclear protein fractions (FIG. 5A).

[4] = test system: BT20 triple negative breast cancer cells; assay: BT20 mammosphere assay; format: cell-based, human
Experimental: as §3

IL1RL1 = assay: RT-PCR analysis of IL1RL1 in MDA-MB-468 cells; format: cell-based, human; conditions: similarly treated MDA-MB-468 cells
Text: A-C. […] A. A gene ontology enrichment bubble plot was produced, and the top 30 enriched GO terms are shown. Color indicates −1*log 10(FDR) for significance of overlap (the higher the more significant). X axis=log odds ratio for genes annotated to that GO term. […] C. RT-PCR analysis of IL1RL1.
A significant impact on the immune response, especially IL-1 dependent pathways was identified (FIG. 12A). IL-1-specific genes were searched and an upregulation in several IL1R genes, including IL1R2, IL1RL1, IL1RL2, IL1RAP and IL1RN (FIG. 12B) were found. […] It is hypothesized that the transient and targeted activation of the IL1/TLR pathway in the tumors may allow for the immune system to become active where previously these tumors were immune suppressive. Triple negative breast cancers with active EGFR pathways are clinically immune suppressive, and it is hypothesized that blocking nEGFR may allow for the utilization of immune targeting to treat these cancers.

[5] = molecular target: EGFR kinase domain / SNX1 Bar domain (Homo sapiens, UniProt P00533); assay: MST binding of EGFR kinase domain with SNX1 Bar domain and peptides; conditions: EGFR kinase domain 50 nM
Chain of EGFR kinase domain / SNX1 Bar domain (P00533 712-979 limits assumed): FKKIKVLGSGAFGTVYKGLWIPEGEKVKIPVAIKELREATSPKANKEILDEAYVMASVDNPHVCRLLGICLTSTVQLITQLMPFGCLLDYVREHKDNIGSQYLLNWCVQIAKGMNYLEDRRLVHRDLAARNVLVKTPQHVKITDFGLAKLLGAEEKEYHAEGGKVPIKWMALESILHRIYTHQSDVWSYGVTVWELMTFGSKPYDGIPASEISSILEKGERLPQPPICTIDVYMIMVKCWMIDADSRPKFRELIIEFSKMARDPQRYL

With `CC[C@H](C)[C@H](NC(=O)[C@@H](NC(=O)[C@H](Cc1c[nH]cn1)NC(=O)[C@H](CC(N)=O)NC(=O)[C@H](CCCCN)NC(=O)[C@H](C)NC(=O)[C@H](CCCNC(=N)N)NC(=O)[C@H](C)NC(=O)[C@H](CCC(N)=O)NC(=O)[C@H](CCCNC(=N)N)NC(=O)[C@H](C)NC(=O)[C@H](C)NC(=O)[C@H](C)NC(=O)[C@H](CCCNC(=N)N)NC(=O)[C@H](C)NC(=O)[C@H](Cc1ccc(O)cc1)NC(C)=O)C(C)C)C(=O)N[C@@H](CCCCN)C(=O)N[C@@H](Cc1ccc(O)cc1)C(=O)N[C@@H](CC(C)C)C(=O)N[C@@H](CCC(=O)O)C(=O)N[C@H](C(=O)N[C@@H](CC(C)C)C(=O)N[C@@H](CC(C)C)C(=O)N[C@@H](Cc1ccc(O)cc1)C(=O)N[C@@H](CO)C(=O)N[C@@H](CCC(N)=O)C(=O)N[C@@H](CCC(N)=O)C(=O)N[C@@H](CCC(N)=O)C(=O)N[C@@H](CC(C)C)C(=O)N[C@@H](C)C(=O)N[C@@H](CCCCN)C(=O)N[C@@H](Cc1ccc(O)cc1)C(=O)N[C@@H](Cc1c[nH]c2ccccc12)C(=O)N[C@@H](CCC(=O)O)C(=O)N[C@@H](C)C(=O)N[C@@H](Cc1ccccc1)C(=O)N[C@@H](CC(C)C)C(N)=O)[C@@H](C)O` [cSNX1.3] the IC50 (MDA-MB-468 cells; 9 h) was 7.5 µM, the “efficacy after C- and N-terminal peptide end-capping” value (MDA-MB-468 cells; MDA-MB-468, 10 μM peptide for 3 days, MTT assay) was “increased efficacy” and the “inhibition of cell survival, compared with Sapitinib” value (MDA-MB-468 cells; MDA-MB-468, 3 days, MTT assay) was “more effective than Sapitinib”. The “inhibition of cell survival, compared with Sapitinib” value [1] was “more effective than Sapitinib”, the “efficacy in cells with reduced EGFR” value [2] was “lacked significant efficacy” and the “effect on CHO cells” value (CHO cells) was “No effect”. The “difference in weight or behavior or grooming” value [3] was “No difference”, the “nuclear localized EGFR” value (nuclear localized EGFR) was “loss of nuclear localized EGFR” and the “secondary sphere formation after treatment in the first week only” value ([4]; BT20, cSNX1.3 in first week, cPTD4 or vehicle in second week) was “significant reduction of sphere formation”. The mammosphere formation ([4]; BT20, first week of treatment) was “no mammospheres were formed”, the “secondary mammosphere formation, treated in the second week” value ([4]; BT20, re-plated, treatment on the second week) was “no mammosphere formation” and the IL1RL1 expression (IL1RL1) was “upregulated”. For the same compound, the “binding of EGFR to SNX1” value [5] was “competitively inhibits”.
